As usually defined, the IC50 is the concentration that inhibits the measured activity by half. Low values mean greater potency, high ones weaker potency.

What all share (format): biochemical
Assay [1] deals with T1, 26S proteasome β5 subunit (chymotrypsin-like activity) (Homo sapiens, UniProt P28074).
T1 construct: gene PSMB5; purified human 26S proteasome; with other subunits of the 26S proteasome
T1 sequence (P28074 60-263): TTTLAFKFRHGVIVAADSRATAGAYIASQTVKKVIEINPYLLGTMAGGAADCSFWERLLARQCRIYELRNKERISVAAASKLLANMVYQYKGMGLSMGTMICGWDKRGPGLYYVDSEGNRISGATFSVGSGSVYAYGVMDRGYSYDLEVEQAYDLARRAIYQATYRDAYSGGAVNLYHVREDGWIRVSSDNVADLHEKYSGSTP
The experiment in a line: peptidase assay of purified human […] proteasome with Suc-Leu-Leu-Val-Tyr-AMC.

For assay [2], the target named is T2, 26S proteasome β1 subunit (caspase-like activity) (Homo sapiens, UniProt P28072).
T2 construct: gene PSMB6; purified human 26S proteasome; with other subunits of the 26S proteasome
T2 sequence (P28072 35-239): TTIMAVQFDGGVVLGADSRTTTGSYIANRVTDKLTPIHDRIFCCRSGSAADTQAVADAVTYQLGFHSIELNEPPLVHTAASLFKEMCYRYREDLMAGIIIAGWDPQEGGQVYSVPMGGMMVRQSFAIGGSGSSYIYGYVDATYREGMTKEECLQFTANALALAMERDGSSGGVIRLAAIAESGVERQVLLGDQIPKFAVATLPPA
The assay is described as follows: peptidase assay of purified human […] proteasome with Z-Nle-Pro-Nle-Asp-aminoluciferin.

Assay [3] has as its target T3, 26S proteasome β2 subunit (trypsin-like activity) (Homo sapiens, UniProt Q99436).
T3 construct: gene PSMB7; purified human 26S proteasome; with other subunits of the 26S proteasome
T3 sequence (Q99436 44-277): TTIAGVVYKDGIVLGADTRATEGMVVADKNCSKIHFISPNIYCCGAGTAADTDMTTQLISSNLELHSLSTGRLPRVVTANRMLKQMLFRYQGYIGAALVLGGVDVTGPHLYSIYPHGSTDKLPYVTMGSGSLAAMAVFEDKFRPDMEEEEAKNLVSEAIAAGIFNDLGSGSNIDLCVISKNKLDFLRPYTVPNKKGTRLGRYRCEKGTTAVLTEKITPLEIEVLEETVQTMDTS
The experiment in a line: peptidase assay of purified human […] proteasome with Ac-Arg-Leu-Arg-AMC.

Molecules are shown by their SMILES.

With `Cc1cc(O)c2c(c1)C(=O)c1cc(O)cc(O)c1C2=O` [emodin, 1,3,8-trihydroxy-6-methylanthraquinone], the half-maximal inhibitory concentration (IC50) in assay [1] is 1220 nM; in assay [2] it was 240 nM; in assay [3], 20800 nM.

These data come from PMC4826234, “Emodin potentiates the antiproliferative effect of interferon α/β by activation of JAK/STAT pathway signaling through inhibition of the 26S proteasome” (Oncotarget, 2015).
